The text below walks through data of paper PMC10788856, “Mimicking Nonribosomal Peptides from the Marine Actinomycete Streptomyces sp. H-KF8 Leads to Antimicrobial Peptides” (ACS Infectious Diseases, 2023).

One data set relates to C. albicans. In words: microbe, parasite or virus in culture. Type of data set: cell-based. The following applies: 16 h.
For the next data set, the system named is E. coli CCUG31246. The data set is classed as cell-based. The following applies: CCUG31246, 16 h. On the procedure:
MICs were performed under the same growth conditions used for mode of action analysis following the guidelines issued by the Clinical Laboratory Standardization Institute (CLSI) with slight modifications. Serial two-fold dilutions of the peptides were prepared in 1:10 BHI in a sterile 96-well plate and subsequently inoculated with 5 × 10^5 CFU/mL of E. coli CCUG31246. […] The following MICs were obtained: C3: 512 μg/mL, L3: 64 μg/mL, and L3-K: 128 μg/mL. These concentrations were used for all mechanistic experiments. Polymyxin B was used as a positive control in all assays at a final concentration of 10 μg/mL.

For data set [1] the following is noted: 37 °C, RP-HPLC; for stability in human serum: human serum from male AB plasma, 250 μL serum + 100 μL aqueous peptide solution (L2 1 mM; L3 0.9 mM; L3-K 0.7 mM; C3 0.5 mM), 0, 0.5, 1, 4, 24 h, Fmoc-Gly internal standard; for additional peaks / shoulder in chromatogram after 24 h in serum, total volume percentage: human serum, detection at 254 nm. The method, then: Peptide stability in serum is another limiting factor for AMPs as novel antibiotics.[30]
Peptide serum stability was performed according to D́Aloisio et al.[30] and Chen et al.[51] with some minor modifications. The serum stability was investigated using human serum (Sigma-Aldrich) from Human male AB plasma, USA origin, sterile-filtered. 250 μL serum was temperature-equilibrated at 37 °C and 100 μL aqueous peptide solution (L2: 1 mM; L3: 0.9 mM; L3-K: 0.7 mM; and C3: 0.5 mM) was added. RP-HPLC was measured at time intervals of 0, 0.5, 1, 4, and 24 h. For RP-HPLC samples, 30 μL of peptide solution was taken, 7 μL of Fmoc-Gly solution (4 mM) was added, and 2 μL of the sample was injected to HPLC. […]
Figure S 133. RP-HPLC chromatogram (gradient from 10 to 90% acetonitrile in water over 10 min at 2
ml/min, detection at 254 nm) of peptides tested for serum stability. A) peptide L2 B) peptide L3. C)
(1 picture or pasted object on this page, not shown here)

The test system of a further data set is S. aureus. In words: microbe, parasite or virus in culture. Type of data set: cell-based. The following applies: 16 h.
Data set [2] has as its system hepatoblastoma (HepG2) cells. Type of data set: cell-based, human. The method, then: (§1) To confirm the peptide selectivity toward bacteria cells, cytotoxicity assays of synthesized peptides L2, L3, L3-K, and C3 against human embryonic kidney (HEK) and hepatoblastoma (HepG2) were performed (Figure 4). The cell viability was assessed using resazurin 24 h post peptide exposure. The line at 70% cell viability marks out the threshold for cytotoxic potential compared to the negative control.
(§2) Figure 4 Cell viability assessment using the resazurin assay 24 h post peptide exposure: (a) HepG2 and (b) HEK cells were treated with various concentrations of the peptides C3, L3, L3-K, and L2. Triton-X was used as a positive control. Cells cultured in pure cell media were used as negative controls and were considered to have 100% cell viability. The line represents the threshold for cytotoxicity level of 70% of cell viability compared to the negative control. Data are presented as the mean ± SD of three biological replicates of the HepG2 cells and the mean ± SD of two biological replicates of the HEK cells.
(§3) Cytotoxicity against human embryonic kidney (HEK) and hepatoblastoma (HepG2) cell lines was assessed. Cells were grown to an initial seeding density of 10 000 cells per well. Metabolic activity was determined in a resazurin-based assay. HEK and HepG2 cells were exposed to four different concentrations of the peptides for 24 h. Treatment with Triton X-100 at 1% v/v was used as a positive control. Following this exposure period, the cells were treated with resazurin at a final concentration of 0.015 mg/mL for 3 h. The metabolic activity was then determined in an resazurin-based assay. The fluorescence intensities were quantified in a Hidex Sense microplate reader using an excitation wavelength of 544 nm and an emission wavelength of 590 nm.

The subject of data set [3] is human embryonic kidney (HEK) cells. Type of data set: cell-based. On the procedure: as §1, §2, §3
On the set-up of data set [4]: method as in PMID 20518462. The following applies: nitrotyrosine side chain; cited from earlier work.

Square brackets hold non-standard residues; d marks the D form. Peptide text beside a SMILES is read from it. Tyr(3-NO2) = N[C@@H](Cc1ccc(O)c([N+](=O)[O-])c1)C(=O)O; Orn = NCCC[C@H](N)C(=O)O Bounds are passed on as bounds.

Consider `CC(C)[C@@H](NC(=O)[C@H](CCCN)NC(=O)[C@@H](NC(=O)[C@H](CCCN)NC(=O)[C@H](Cc1c[nH]c2ccccc12)NC(=O)[C@@H](C)NC(=O)[C@H](NC(=O)[C@@H](C)N)C(C)C)[C@@H](C)O)C(=O)N[C@@H](CCCCN)C(N)=O` [L2] (H-[dA][dV][dA]W[Orn]T[Orn][dV]K-NH2), for which, in the data set with C. albicans, the “C. albicans MIC” value was more than 512 µg/mL. In the data set with E. coli CCUG31246, the “E. coli MIC” value is more than 512 µg/mL. Further, in data set [1], the “stability in human serum” value is “stable after 24 h” and the “additional peaks / shoulder in chromatogram after 24 h in serum, total volume percentage” value was found to be 0.4%. For the same compound, the “S. aureus MIC” value with S. aureus was more than 512 µg/mL. For the same compound, in data set [2], the “cytotoxicity, cell viability HepG2” value was “no cytotoxicity at any tested concentration”. Besides, in data set [3], the “cytotoxicity, cell viability HEK” value was “no cytotoxicity at any tested concentration”.
Turning to `CC(C)[C@@H](NC(=O)[C@H](CCCN)NC(=O)[C@@H](NC(=O)[C@H](CCCN)NC(=O)[C@H](Cc1c[nH]c2ccccc12)NC(=O)[C@@H](C)NC(=O)[C@H](NC(=O)[C@@H](C)NC(=O)[C@@H](N)Cc1c[nH]c2ccccc12)C(C)C)[C@@H](C)O)C(=O)N[C@@H](Cc1ccc(O)c([N+](=O)[O-])c1)C(N)=O` [L3-K] (H-W[dA][dV][dA]W[Orn]T[Orn][dV][Tyr(3-NO2)]-NH2), the “C. albicans MIC” value in the data set on C. albicans amounted to 248 µg/mL. Also, in data set [1], the “stability in human serum” value is “stable after 24 h” and the “additional peaks / shoulder in chromatogram after 24 h in serum, total volume percentage” value stood at 1.3%. Also, the “S. aureus MIC” value in the data set with S. aureus was 418.7 µg/mL. In addition, in data set [2], the “cytotoxicity, cell viability HepG2” value was “no cytotoxicity at any tested concentration”. For the same compound, in data set [3], the “cytotoxicity, cell viability HEK” value is on record as “no cytotoxicity at any tested concentration”.
For the compound `N[C@@H](Cc1ccc(O)c([N+](=O)[O-])c1)C(=O)O` [Y-NO2], in data set [4], the pKa value is reported as 7.1.
